Reference: patent US11090247B2, “Compositions for protecting the skin from heavy metals and formaldehyde” (FNG RESEARCH CO., LTD., priority 2016, dated 2021)

Columns and labels:
[1] = Removal test of heavy metals of active ingredients (pig skin, ICP-MS): Pb; conditions: contaminated pig skin
Experimental: (§1) (1) Preparation of Heavy Metal Contamination Sources and Pig Skin Samples
(§2) A pig was slaughtered, flayed and the bristle was shaved. The pig skin was cut to prepare 5*5 cm size of skin samples respectively.
(§3) The said skin samples were cleanly wiped with wet gauze, and then, added to 50 ml of methanol and extracted by shaking with ultrasonic for 60 min. 50 ml of methanol was further added and mixed. The pig skin samples were removed from the extracted solutions to prepare the test solutions.
(§4) The test solutions were analyzed for heavy metal components using an inductively coupled plasma mass spectrometer (ICP-MS, Xseries™ 2, Thermo Fisher Scientific, UK).

[2] = Removal test of heavy metals of active ingredients (pig skin, ICP-MS): Cd; conditions: contaminated pig skin
Experimental: as §1, §2, §3, §4

[3] = Removal test of heavy metals of active ingredients (pig skin, ICP-MS): Cu; conditions: contaminated pig skin
Experimental: as §1, §2, §3, §4

human skin = assay: Skin irritation test of active ingredient (patch method, CTFA guidelines); type: in vivo; set-up: key to Degree of irritation: 0–0.1 none, 0.11–0.3 weak, 0.31–0.5 moderate, ≥0.51 strong irritation; conditions: 20 people, patch 24 hours; for Test result(number of subject) (+): (+): Apparent reddening than periphery; for Test result(number of subject) (++): (++): More reddened and swollen than periphery; for Test result(number of subject) (±): (±): slightly reddish than the periphery; for Test result(number of subject) (−): (−): No erythema or particularly no symptoms
Experimental: A total of 20 people (10 men and 10 women in their 20 s and 30 s) were tested for skin irritation using the patch method according to the guidelines of CTFA (The Cosmetic, Toiletry & Fragrance Association, Inc. Washington, D.C.).
A filter paper disk was placed in an 8 mm diameter, 10 panels of pin chamber.
After 24 hours, the pin chamber was removed, and skin conditions were visually observed.
[Criteria for Skin Irritation]
(−): No erythema or particularly no symptoms; (±): slightly reddish than the periphery; (+): Apparent reddening than periphery; (++): More reddened and swollen than periphery.
[Grade for Skin Irritation]
Degree of irritation 0-0.1: Grade I (unstimulated);
Degree of irritation 0.11-0.3: Grade II (weakly stimulated);
Degree of irritation 0.31-0.5: Grade III (moderately stimulated);
Degree of irritation 0.51 or more: Grade IV (strongly stimulated)

[4] = Formaldehyde removing ability test (GC); conditions: 2.0% formaldehyde solution

## O=C(O)CN(CCN(CC(=O)O)CC(=O)O)CC(=O)O [1(EDTA), Ethylenediaminetetraacetic acid, reference compound]
[1]; 0.1 wt % aqueous solution
  Removal of Heavy metals Pb (%): 84.3%
[1]; 0.5 wt % aqueous solution
  Removal of Heavy metals Pb (%): 88.3%
[1]; 1.0 wt % aqueous solution
  Removal of Heavy metals Pb (%): 89.6%
[2]; 0.1 wt % aqueous solution
  Removal of Heavy metals Cd (%): 82.3%
[2]; 0.5 wt % aqueous solution
  Removal of Heavy metals Cd (%): 87.3%
[2]; 1.0 wt % aqueous solution
  Removal of Heavy metals Cd (%): 88.3%
[3]; 0.1 wt % aqueous solution
  Removal of Heavy metals Cu (%): 86.5%
[3]; 0.5 wt % aqueous solution
  Removal of Heavy metals Cu (%): 88.6%
[3]; 1.0 wt % aqueous solution
  Removal of Heavy metals Cu (%): 89.2%

## C1CNCCNCCNCCN1 [Cyclen, 1,4,7,10-tetraazacyclododecane]
[1]; 0.1 wt % aqueous solution
  Removal of Heavy metals Pb (%): 91.7%
[1]; 0.5 wt % aqueous solution
  Removal of Heavy metals Pb (%): 93.7%
[1]; 1.0 wt % aqueous solution
  Removal of Heavy metals Pb (%): 94.3%
[2]; 0.1 wt % aqueous solution
  Removal of Heavy metals Cd (%): 88.6%
[2]; 0.5 wt % aqueous solution
  Removal of Heavy metals Cd (%): 91.1%
[2]; 1.0 wt % aqueous solution
  Removal of Heavy metals Cd (%): 91.4%
[3]; 0.1 wt % aqueous solution
  Removal of Heavy metals Cu (%): 93.1%
[3]; 0.5 wt % aqueous solution
  Removal of Heavy metals Cu (%): 96.6%
[3]; 1.0 wt % aqueous solution
  Removal of Heavy metals Cu (%): 97.8%
Human skin; 0.1 wt %
  Degree of irritation: 0
  Grade: I (Degree of irritation 0-0.1: Grade I (unstimulated))
  Test result(number of subject) (+): 0
  Test result(number of subject) (++): 0
  Test result(number of subject) (±): 0
  Test result(number of subject) (−): 20
Human skin; 0.5 wt %
  Degree of irritation: 0
  Grade: I (Degree of irritation 0-0.1: Grade I (unstimulated))
  Test result(number of subject) (+): 0
  Test result(number of subject) (++): 0
  Test result(number of subject) (±): 0
  Test result(number of subject) (−): 20
Human skin; 1.0 wt %
  Degree of irritation: 0.15
  Grade: II (Degree of irritation 0.11-0.3: Grade II (weakly stimulated))
  Test result(number of subject) (+): 1
  Test result(number of subject) (++): 0
  Test result(number of subject) (±): 1
  Test result(number of subject) (−): 18
[4]; formaldehyde GC area after 30 min, 3 molar equivalents, room temperature
  Area (mAU*min) 30 min: 0.181 mAU*min
[4]; formaldehyde GC area after 180 min, 3 molar equivalents, room temperature
  Area (mAU*min) 180 min: 0 mAU*min
[4]; formaldehyde GC area, initial state, 3 molar equivalents of compound
  Area (mAU*min) Initial: 0.305 mAU*min
